Laboratory results as given in patent US20250122191A1, “COMPOUNDS AS BCL-2 INHIBITORS” (Fochon Biosciences, Ltd, priority 2021, published 2025).

Columns and labels:
Assay type in all cases: cell-based
Toledo cells = assay: Cell proliferation assay (MTS), Toledo cells; conditions: Homo sapiens, 72 h
Summary of the method: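 Toledo cells (RPMI-1640, 10% FBS) seeded at 30000 cells/well, rested 4 h, then exposed 72 h at 37 °C, 5% CO2 to compound at nine final concentrations, 1.5–10000 nM. Viability by MTS (2 h), absorbance at 490 nm. IC50 from the concentration-response.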

RS4;11-BCL-2 D103E cells = assay: Cell proliferation assay (MTS), RS4;11-BCL-2 D103E engineered cells; conditions: Homo sapiens, 72 h, read-out: RS4, 11 BCL2-D103E IC50
Text: MTS testing kit was purchased from Promega (Madison, WI, USA). The RPMI-1640, Fetal bovine serum and Penicillin-Streptomycin were purchased from BI (Biological Industries, Beit Haemek, Israel). Puromycin was purchased from Beyotime (shanghai, China). Dimethyl sulfoxide (DMSO) was purchased from Sigma (St. Louis., MO, USA). RS4;11-BCL-2 G101V (Cobioer Lot. #: CBD2021063013P4), RS4;11-BCL-2 D103E (Cobioer Lot. #: CBD2021063013P4), RS4;11-BCL-2 D103Y (Cobioer Lot. #: CBD2022012101P4) and RS4;11-BCL-2 F104L (Cobioer Lot. #: CBD2021063014P4) cells were cultured in RPMI1640 supplemented with 1 ug/mL puromycin, 100 U/mL Penicillin-Streptomycin and 10% FBS.
To investigate whether a compound is able to inhibit the activity of BCL-2 mutation in cells, a mechanism-based assay using engineered cell lines stably overexpressing BCL-2 mutation (RS4;11-BCL-2 G101V, RS4;11-BCL-2 D103E, RS4;11-BCL-2 D103Y, and RS4;11-BCL-2 F104L) was developed. In this assay, the inhibition of BCL-2 mutation was reflected by the inhibition of cell proliferation of engineered RS4;11 cells. Cells were plated into 96-well plates at optimized cell density (RS4;11-BCL-2 G101V: 5000 cells/well; RS4;11-BCL-2 D103E: 7500 cells/well; RS4;11-BCL-2 D103Y: 7500 cells/well; RS4;11-BCL-2 F104L: 5000 cells/well). Plates were incubated at 37° C., with 5% CO2 for 4 h (RS4;11-BCL-2 G101V, RS4;11-BCL-2 F104L) and 24 h (RS4;11-BCL-2 D103E, RS4;11-BCL-2 D103Y), respectively. Compounds were serially diluted and added to the plates with the final concentrations of 10000, 3333.3, 1111.1, 370.4, 123.5, 41.2, 13.7, 4.6 and 1.5 nM. Plates were incubated at 37° C., with 5% CO2 for 120 h (RS4; 11-BCL-2 G101V, RS4; 11-BCL-2 F104L) and 72 h (RS4;11-BCL-2 D103E, RS4;11-BCL-2 D103Y), respectively. 20 μl MTS was added into each well and the plates were incubated at 37° C., with 5% CO2 exactly for 2 h. The absorbance was measured by a microplate reader at 490 nm. IC50 values were calculated using GraphPad Prism 8.0 software.

RS4;11-BCL-2 G101V cells = assay: Cell proliferation assay (MTS), RS4;11-BCL-2 G101V engineered cells; conditions: Homo sapiens, 120 h, read-out: RS4, 11 BCL2-G101V IC50
Summary of the method: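 Inhibition of mutant BCL-2 is inferred from reduced proliferation of RS4;11 cells stably overexpressing the mutant. Compounds are tested at 1.5–10000 nM for 120 h (G101V, F104L) or 72 h (D103E, D103Y), with MTS absorbance at 490 nm used to derive IC50.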

| Structure (SMILES) | IC50 (Toledo cells) [nM] | IC50 (RS4;11-BCL-2 D103E cells) [nM] | IC50 (RS4;11-BCL-2 G101V cells) [nM] |
| --- | --- | --- | --- |
| COc1nc2[nH]cc(F)c2cc1Oc1cc(N2CCC3(CC2)CC(N2CCN(Cc4cnn(C5CC5)c4)C[C@H]2c2ccccc2C(C)C)C3)ccc1C(=O)NS(=O)(=O)c1cnc(NC[C@H]2CC[C@](C)(O)CC2)c([N+](=O)[O-])c1 [Example 133, 4-(2-((R)-4-((1-cyclopropyl-1H-pyrazol-4-yl)methyl)-2-(2-isopropylphenyl)piperazin-1-yl)-7-azaspiro[3.5]nonan-7-yl)-2-((3-fluoro-6-methoxy-1H-pyrrolo[2,3-b]pyridin-5-yl)oxy)-N-((6-((((1r,4r)-4-hydroxy-4-methylcyclohexyl)methyl)amino)-5-nitropyridin-3-yl)sulfonyl)benzamide] | 1 | 2 | 1 |
| COc1ccc(CN2CCN(C3CC4(CCN(c5ccc(C(=O)NS(=O)(=O)c6cnc(NC[C@H]7CC[C@](C)(O)CC7)c([N+](=O)[O-])c6)c(Oc6cnc7[nH]cc(F)c7c6)c5)CC4)C3)[C@H](c3ccccc3C(C)C)C2)c2nc(C)oc12 [Example 244, 2-((3-fluoro-1H-pyrrolo[2,3-b]pyridin-5-yl)oxy)-N-((6-((((1r,4r)-4-hydroxy-4-methylcyclohexyl)methyl)amino)-5-nitropyridin-3-yl)sulfonyl)-4-(2-((R)-2-(2-isopropylphenyl)-4-((7-methoxy-2-methylbenzo[d]oxazol-4-yl)methyl)piperazin-1-yl)-7-azaspiro[3.5]nonan-7-yl)benzamide] | 1 | 1 | 1 |
| CC(C)c1ccccc1[C@@H]1CN(Cc2cnn(C3CC3)c2)CCN1C1CC2(CCN(c3ccc(C(=O)NS(=O)(=O)c4cnc(NC[C@H]5CC[C@](C)(O)CC5)c([N+](=O)[O-])c4)c(Oc4cnc5[nH]cc(F)c5c4)c3)CC2)C1 [Example 247, 4-(2-((R)-4-((1-cyclopropyl-1H-pyrazol-4-yl)methyl)-2-(2-isopropylphenyl)piperazin-1-yl)-7-azaspiro[3.5]nonan-7-yl)-2-((3-fluoro-1H-pyrrolo[2,3-b]pyridin-5-yl)oxy)-N-((6-((((1r,4r)-4-hydroxy-4-methylcyclohexyl)methyl)amino)-5-nitropyridin-3-yl)sulfonyl)benzamide] | 1 | 1 | 1 |
| CCOc1nc2[nH]cc(F)c2cc1Oc1cc(N2CCC3(CC2)CC(N2CCN(Cc4ccc(OC)c(OC)c4)C[C@H]2c2ccccc2C(C)C)C3)ccc1C(=O)NS(=O)(=O)c1cnc(NC[C@H]2CC[C@](C)(O)CC2)c([N+](=O)[O-])c1 [Example 8, 4-(2-((R)-4-(3,4-dimethoxybenzyl)-2-(2-isopropylphenyl)piperazin-1-yl)-7-azaspiro[3.5]nonan-7-yl)-2-((6-ethoxy-3-fluoro-1H-pyrrolo[2,3-b]pyridin-5-yl)oxy)-N-((6-((((1r,4r)-4-hydroxy-4-methylcyclohexyl)methyl)amino)-5-nitropyridin-3-yl)sulfonyl)benzamide] | 1 | 3 | 1 |
| CCOc1nc2[nH]cc(F)c2cc1Oc1cc(N2CCC3(CC2)CC(N2CCN(Cc4ccc(OC)nc4)C[C@H]2c2ccccc2C(C)C)C3)ccc1C(=O)NS(=O)(=O)c1cnc(NC[C@H]2CC[C@](C)(O)CC2)c([N+](=O)[O-])c1 [Example 120, 2-((6-ethoxy-3-fluoro-1H-pyrrolo[2,3-b]pyridin-5-yl)oxy)-N-((6-((((1r,4r)-4-hydroxy-4-methylcyclohexyl)methyl)amino)-5-nitropyridin-3-yl)sulfonyl)-4-(2-((R)-2-(2-isopropylphenyl)-4-((6-methoxypyridin-3-yl)methyl)piperazin-1-yl)-7-azaspiro[3.5]nonan-7-yl)benzamide] | 1 | 1 | 1 |
| CCOc1nc2[nH]cc(F)c2cc1Oc1cc(N2CCC3(CC2)CC(N2CCN(CC)C[C@H]2c2ccccc2C(C)C)C3)ccc1C(=O)NS(=O)(=O)c1cnc(NC[C@H]2CC[C@](C)(O)CC2)c([N+](=O)[O-])c1 [Example 141, 2-((6-ethoxy-3-fluoro-1H-pyrrolo[2,3-b]pyridin-5-yl)oxy)-4-(2-((R)-4-ethyl-2-(2-isopropylphenyl)piperazin-1-yl)-7-azaspiro [3.5]nonan-7-yl)-N-((6-((((1r,4r)-4-hydroxy-4-methylcyclohexyl)methyl)amino)-5-nitropyridin-3-yl)sulfonyl)benzamide] | 1 | 1 | 1 |
| COc1ccc(CN2CCN(C3CC4(CCN(c5ccc(C(=O)NS(=O)(=O)c6cnc(NC[C@H]7CC[C@](C)(O)CC7)c([N+](=O)[O-])c6)c(Oc6cnc7[nH]cc(F)c7c6)c5)CC4)C3)[C@H](c3ccccc3C(C)C)C2)cn1 [Example 252, 2-((3-fluoro-1H-pyrrolo[2,3-b]pyridin-5-yl)oxy)-N-((6-((((1r,4r)-4-hydroxy-4-methylcyclohexyl)methyl)amino)-5-nitropyridin-3-yl)sulfonyl)-4-(2-((R)-2-(2-isopropylphenyl)-4-((6-methoxypyridin-3-yl)methyl)piperazin-1-yl)-7-azaspiro[3.5]nonan-7-yl)benzamide] | 1 | 1 | 1 |
| COCCN1CCN(C2CC3(CCN(c4ccc(C(=O)NS(=O)(=O)c5cnc(NC[C@H]6CC[C@](C)(O)CC6)c([N+](=O)[O-])c5)c(Oc5cnc6[nH]cc(F)c6c5)c4)CC3)C2)[C@H](c2ccccc2C(C)C)C1 [Example 203, 2-((3-fluoro-1H-pyrrolo[2,3-b]pyridin-5-yl)oxy)-N-((6-((((1r,4r)-4-hydroxy-4-methylcyclohexyl)methyl)amino)-5-nitropyridin-3-yl)sulfonyl)-4-(2-((R)-2-(2-isopropylphenyl)-4-(2-methoxyethyl)piperazin-1-yl)-7-azaspiro[3.5]nonan-7-yl)benzamide] | 1 | 1 | 1 |
| COc1cc(CN2CCN(C3CC4(CCN(c5ccc(C(=O)NS(=O)(=O)c6cnc(NC[C@H]7CC[C@](C)(O)CC7)c([N+](=O)[O-])c6)c(Oc6cnc7[nH]cc(F)c7c6)c5)CC4)C3)[C@H](c3ccccc3C(C)C)C2)ccc1C1CC1 [Example 73, 4-(2-((R)-4-(4-cyclopropyl-3-methoxybenzyl)-2-(2-isopropylphenyl)piperazin-1-yl)-7-azaspiro[3.5]nonan-7-yl)-2-((3-fluoro-1H-pyrrolo[2,3-b]pyridin-5-yl)oxy)-N-((6-((((1r,4r)-4-hydroxy-4-methylcyclohexyl)methyl)amino)-5-nitropyridin-3-yl)sulfonyl)benzamide] | 1 | 3 | 1 |
| CC(C)c1ccccc1[C@@H]1CN(Cc2ccc(S(C)(=O)=O)cc2)CCN1C1CC2(CCN(c3ccc(C(=O)NS(=O)(=O)c4cnc(NC[C@H]5CC[C@](C)(O)CC5)c([N+](=O)[O-])c4)c(Oc4cnc5[nH]cc(F)c5c4)c3)CC2)C1 [Example 329, 2-((3-fluoro-1H-pyrrolo[2,3-b]pyridin-5-yl)oxy)-N-((6-((((1r,4r)-4-hydroxy-4-methylcyclohexyl)methyl)amino)-5-nitropyridin-3-yl)sulfonyl)-4-(2-((R)-2-(2-isopropylphenyl)-4-(4-(methylsulfonyl)benzyl)piperazin-1-yl)-7-azaspiro[3.5]nonan-7-yl)benzamide] | 1 | 1 |  |
